Experiments:
MAO-B = target: T1, MAO-B (Mus musculus, UniProt Q8BW75); assay: Determination of MAO-B activity of ST and SN; assay type: in vivo, mice (C57BL/6j); settings: both ST and SN; MPTP 30 mg/kg mice; 5 mg/kg and 15 mg/kg p.o.
T1 construct: a MAO-B substrate was added to a MAO-B enzyme-containing substance (ST and SN samples); from tissue; host or cells: mouse brain: striatum (ST) and substantia nigra (SN/SNpc) homogenate supernatant
T1 sequence (Q8BW75 1-520): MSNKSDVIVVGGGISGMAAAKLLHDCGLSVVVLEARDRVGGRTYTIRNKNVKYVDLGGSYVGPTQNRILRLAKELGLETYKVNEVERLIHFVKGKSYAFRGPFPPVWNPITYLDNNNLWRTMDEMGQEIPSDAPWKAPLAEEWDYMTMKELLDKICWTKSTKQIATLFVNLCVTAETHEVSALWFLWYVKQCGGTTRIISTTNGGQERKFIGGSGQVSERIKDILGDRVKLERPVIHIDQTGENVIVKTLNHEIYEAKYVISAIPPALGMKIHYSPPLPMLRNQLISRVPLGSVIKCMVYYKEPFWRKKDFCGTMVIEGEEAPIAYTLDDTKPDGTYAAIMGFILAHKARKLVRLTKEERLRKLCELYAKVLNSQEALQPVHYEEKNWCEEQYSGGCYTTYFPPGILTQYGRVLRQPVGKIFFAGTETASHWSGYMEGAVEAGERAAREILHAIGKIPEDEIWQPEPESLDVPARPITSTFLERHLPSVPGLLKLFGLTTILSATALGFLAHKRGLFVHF
Method: 40 mice were classified into five groups such that eight mice belonged to each group. After the habituation period, all mice were orally administered with a drug every day. While the mice of Groups 1 and 2 were administered with saline (p.o.), the mice of Groups 3, 4, and 5 were administered with 5 mg/kg ropinirole (p.o.), 5 mg/kg AKNS-2 (p.o.), and 15 mg/kg AKNS-2 (p.o.), respectively. From the 5th day therefrom, the mice of Group 1 were intraperitoneally administered with a saline at 1 hour after gavage feeding of saline, and the mice of Groups 2, 3, 4, and 5 were administered with 30 mg/kg MPTP (i.p.) at 1 hour after gavage feeding of saline, ropinirole, AKNS-2 (5 mg/kg), and AKNS-2 (15 mg/kg), respectively. […]
On the 7th day after the last administration of MPTP, SNpc and ST of each mouse were carefully excised and stored at −80° C. until use. […] A concentration of proteins contained in the supernatant was measured by the Bradford method. […]
A MAO-B assay kit of Promega Corporation (Woods Hollow Road, Madison, Wis., USA) was used to determine MAO-B activity of ST and SN according to the manufacturer's instructions. […] Luminescence signals were measured using an Infinite M1000 multimode microplate reader (TECAN, Männedorf, Switzerland). MAO-B activity was expressed as relative light unit (RLU)/mg protein).

[1] = tested on: autophagy-related protein markers including LC3, p62, AMPK, Erk, ULK, and mTOR; assay: Western blot of autophagy-related protein markers in ST and SN of mice; assay type: in vivo, mice (C57BL/6j); settings: for expression of p-mTOR in ST / p-mTOR in SN: MPTP mice; for expression of p-ULK: ST and SN, vs MPTP
Method: 40 mice were classified into five groups such that eight mice belonged to each group. After the habituation period, all mice were orally administered with a drug every day. While the mice of Groups 1 and 2 were administered with saline (p.o.), the mice of Groups 3, 4, and 5 were administered with 5 mg/kg ropinirole (p.o.), 5 mg/kg AKNS-2 (p.o.), and 15 mg/kg AKNS-2 (p.o.), respectively. From the 5th day therefrom, the mice of Group 1 were intraperitoneally administered with a saline at 1 hour after gavage feeding of saline, and the mice of Groups 2, 3, 4, and 5 were administered with 30 mg/kg MPTP (i.p.) at 1 hour after gavage feeding of saline, ropinirole, AKNS-2 (5 mg/kg), and AKNS-2 (15 mg/kg), respectively. Each mouse was administered with a single dose of saline/MPTP injection every day for 8 days. At 7 days after the final MPTP injection, all mice were sacrificed by cervical dislocation, and then the whole brain, SNpc, and striatum (ST) were excised for biochemical analysis.
On the 7th day after the last administration of MPTP, SNpc and ST of each mouse were carefully excised and stored at −80° C. until use. Thereafter, brain tissue of SNpc and ST was homogenized in a PRO-PREP™ lysis buffer (iNtRON, Gyeonggi, Korea) containing a phosphatase inhibitor cocktail set I (Sigma-Aldrich, Mo., USA). After shaking at 4° C. for 30 minutes, homogenates were centrifuged at 4° C. at 13000×g for 20 minutes, and a supernatant obtained therefrom was collected and added to a new 1.5 mL tube. A concentration of proteins contained in the supernatant was measured by the Bradford method. A part of the supernatant was mixed with the same volume of a loading buffer and denatured in a heater at 99° C. for 5 minutes for western blot analysis. The remaining supernatant was stored at −80° C. for subsequent tests for MAO-B activity and DA level using an ELISA kit.
Protein markers contained in lysates of the SH-SY5Y cells and brain tissue of the mice (SNpc and ST) were measured by western blot analysis. […] Then, proteins separated on the gel were transferred to a polyvinylidene fluoride (PVDF) membrane for 45 minutes using a Trans-Blot Turbo Transfer System (Bio-Rad, USA). The membrane was washed with tris-buffered saline with 0.1% Tween 20, TBST) for 5 minutes and then blocked by 5% skim milk dissolved in a TBST buffer. The membrane was further incubated with monoclonal primary antibodies derived from rabbits (anti-GAPDH, anti-AMPK, anti-p-AMPK, anti-ULK, anti-p-ULK555, anti-Erk, anti-p-Erk, anti-mTOR, anti-p-mTOR, anti-LC3B, anti-TH, and anti-α-synuclein antibodies). The primary antibodies were diluted in a blocking buffer at a ratio of 1:1000 and incubated overnight at 4° C. On the second day, the membrane was washed with TBST three times (10 minutes each) and incubated at room temperature in a horseradish peroxidase-conjugated goat anti-rabbit IgG secondary antibody (diluted in a blocking buffer at a ratio of 1:2000). After incubating in the secondary antibody for 1 hour, the membrane was washed for 30 minutes. The protein blots on the membrane were developed using an ECL detection kit and visualized using an LAS-4000 mini system (Fujifilm, Japan). The intensity of the protein blots was quantified using Multi Gauge software (Fujifilm, Japan).

[2] = tested on: GFP-RFP-LC3-II puncta in SH-SY5Y cells; assay: Tandem fluorescent protein quenching assay (RFP-GFP-LC3); assay type: cell-based, human; settings: transfected SH-SY5Y cells, AKNS-2 10 μM alone vs control cells
Method: SH-SY5Y cells were cultured in a 24-well plate at a density of 8×10^4 cells/well on a glass cover slip. Transfection was performed in accordance with guidelines of the autophagy tandem RFP-GFP-LC3B kit. After culturing the cells for 24 hours, the cells were treated with an LC3B reagent. After the transfected cells were incubated for 24 hours, 50 nM Wart or 100 nM Baf was administered thereto, and then AKNS-2 (10 μM) was added thereto. The cells were immobilized with 4% paraformaldehyde and permeabilized with 0.1% Triton X100. Nuclei thereof were stained with 4,6-diamidino-2-phenylindole (DAPI, 25 μg/mL). Fluorescent signals were detected using a confocal microscope (Leica, Solms, Germany).

[3] = 15 mg/kg p.o., vs MPTP treatment
[4] = both ST and SN, vs MPTP treatment

activity of MAO-B increased by MPTP (MAO-B)	Structure (SMILES)	expression of LC3-II in SN [1, 3]	expression of LC3-II in ST [1, 3]	expression of p-mTOR in ST [1]	p-mTOR in SN [1]	expression of p-ULK ([1]; 5 mg/kg and 15 mg/kg p.o.)	p62 levels ([1]; both ST and SN, 5 mg/kg and 15 mg/kg p.o., vs MPTP-treated group)	expression of p-Erk ([1]; both ST and SN, 15 mg/kg p.o., vs MPTP treatment)	p-AMPK [1, 4]	accumulation of GFP-RFP-LC3-II puncta [2]	expression of p-ULK ([1]; ropinirole)
could not reduce the activity of MAO-B	C[C@@H]1O[C@@H](O[C@@H]2[C@@H](O)[C@H](O[C@@H]3[C@@H](O[C@@H]4OC[C@@H](O)[C@H](O)[C@H]4O)[C@@H](O)[C@H](O[C@H]4[C@H](OC(=O)[C@]56CCC(C)(C)C[C@H]5C5=CC[C@@H]7[C@@]8(C)C[C@H](O)[C@H](O[C@@H]9O[C@H](CO)[C@@H](O)[C@H](O[C@@H]%10OC[C@@H](O)[C@H](O)[C@H]%10O)[C@H]9O)[C@@](C)(CO)[C@@H]8CC[C@@]7(C)[C@]5(C)C[C@H]6O)OC[C@H](O)[C@@H]4O)O[C@H]3C)OC[C@H]2O)[C@H](O)[C@H](O)[C@H]1O [Compound 1, 3-O-β-D-xylopyranosyl-(1→3)-β-D-glucopyranosylpolygalacic acid 28-O-α-L-rhamnopyranosyl-(1→3)-β-D-xylopyranosyl-(1→4)-[β-D-xylopyranosyl-(1→3)]-α-L-rhamnopyranosyl-(1→2)-α-L-arabinopyranosyl ester]	Although no noticeable difference was observed, increased expression of LC3-II was observed in SN	induced a significant increase in the expression of LC3-II in ST	clearly showed a tendency to decrease the expression of p-mTOR in ST	a significant decrease in p-mTOR	significantly increased the expression of p-ULK in ST and SN	significantly decreased p62 levels	significantly increased	induced a significant increase in p-AMPK in both ST and SN	more cytoplasmic puncta stained with green and red fluorescence were observed compared to in the control cells	
	CCCN(CCC)CCc1cccc2c1CC(=O)N2 [ropinirole, reference compound]			clearly showed a tendency to decrease the expression of p-mTOR in ST	a significant decrease in p-mTOR				induced a significant increase in p-AMPK in both ST and SN		significantly increased the expression of p-ULK in ST and SN
